Marks after values point to notes of the source that are not given here.
Experiment: Photophysical properties of fluorophores and RNA-fluorophore complexes (Squash study)
Assay type: physicochemical
Method: All RNAs used for in vitro studies (except the initial hits from SELEX and the DE2-6 mutants) were purified using 8% denaturing PAGE (7M urea) and eluted in 0.3 M NaOAc (pH 5.2) overnight. The RNA was ethanol precipitated and quantified using absorbance in a NanoDrop 2000 spectrometer. All in vitro RNA properties were measured in 40 mM HEPES-KOH (pH 7.4), 100 mM KCl, 0.5 mM MgCl2 buffer unless specified.
Absorption, excitation, and emission spectra were measured using conditions where the RNA is in excess and the fluorophore is limiting to ensure that no free fluorophore contributes to the absorbance or fluorescence signal (FIGS. 7A-7D).
All quantum yields were determined by comparing each RNA-fluorophore complex with Broccli-DFHBI-1T or Corn-DFHO. All measurements for quantum yield were taken in the presence of excess RNA (10 μM final) compared to the fluorophores (0.2 μM final) to avoid interference from unbound fluorophore. The integral of the emission spectra for each Squash-fluorophore complex was compared with the corresponding integrals for Broccoli or Corn to calculate the quantum yield.

[1] = 40 mM HEPES-KOH (pH 7.4), 100 mM KCl, 0.5 mM MgCl2

CC1=N/C(=C\c2cc(F)c(O)c(F)c2)C(=O)N1CC(F)(F)F [DFHBI-1T, (Z)-4-(3,5-difluoro-4-hydroxybenzylidene)-2-methyl-1-(2,2,2-trifluoroethyl)-1H-imidazol-5(4H)-one]
Emission maximum [1]: 495 nm
Excitation maximum [1]: 426 nm
Fluorescence quantum yield (compared with Broccoli-DFHBI-1T or Corn-DFHO): 0.00098
Extinction coefficient (free DFHBI-1T, at 452 nm): 19,900* M^−1cm^−1
Brightness (extinction coefficient × quantum yield) (relative to Broccoli): 0.12
